These molecules were tested on mESC Bmi1-luciferase reporter, firefly/renilla ratio, 24 h (assay: compounds raising Bmi1 reporter signal – mouse embryonic stem cells, luciferase, cherry-pick, esBAF inhibitor project, dose response (AID 651717);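 further: luciferase knocked into Bmi1 locus with EF-1a renilla as cell number control; rising ratio signals esBAF inhibition which derepresses Bmi1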).
Molecule `COc1ccccc1C=Cc1ccnc2ccccc12` has an AC40 of 7.65 µM. In the case of `Cc1ccc(S(=O)(=O)N2CCN(C(=O)c3ccc4ccccc4n3)CC2)c(C)c1`, the AC40 is reported as 6.53 µM. `Cc1ccc(OCc2cc(C(=O)NCCc3cccnc3)no2)cc1C` was tested, and the AC40 was 11.9 µM. For `CC(C)(O)c1cc2ccc(C#Cc3ccsc3)cc2c(=O)o1`, the AC40 was 3.42 µM. In the case of `C/C(=N\O)c1ccc2c3ccccc3n(C)c2c1`, the AC40 is reported as 3.32 µM. `CN(C)c1ncnc2c1ncn2-c1ccccc1` gave an AC40 of 9.34 µM. For `Cc1ccc(OCc2cc(C(=O)N3CCC(c4ccccc4Cl)C3)no2)cc1C` (configuration not stated), the AC40 was 7.33 µM. Molecule `Cc1ccc(-c2nc3ccccc3[nH]2)cn1` has an AC40 of 3.49 µM. With `O=C(Nc1ccc(F)cc1)c1ccccc1` the AC40 was 7.36 µM. Molecule `CN(Cc1ccccn1)C(=O)c1cc(COc2ccc(F)c(F)c2)on1` has an AC40 of 3.82 µM. `CC(C)(C)C(=O)N1CCN(c2nc3ccccc3s2)CC1` was tested, and the AC40 was 0.702 µM. `C1=NN(c2ccccc2)C=NN1c1ccccc1` was tested, and the AC40 was 1.17 µM. `CCS(=O)(=O)n1nc(-c2ccc(Cl)cc2)nc1SC` gave an AC40 of 4.79 µM. Work on `COC(=O)C(Cc1ccc(OC(=O)c2ccc(Cl)cc2)cc1)N1Cc2ccccc2C1=O` (configuration not stated) yielded an AC40 of 3.13 µM. Work on `C=CCN(C(=O)C1CC(=O)N(C2CCCC2)C1)c1nc(-c2ccc(S(C)(=O)=O)cc2)cs1` (configuration not stated) yielded an AC40 of 34.4 µM. `O=C(O)c1cc(-c2ccc(-c3c(-c4ccc5c(c4)OCO5)noc3-c3ccsc3)cc2)nc2ccccc12` showed an AC40 of 6.89 µM. `O=C1c2ccccc2CN1c1ccccc1` gave an AC40 of 3.89 µM. For `O=C(CC1CC2CCC1C2)NC1CCCCCCC1` (configuration not stated), the AC40 was 9.68 µM. For `Cc1cccc(C)c1OCc1cc(C(=O)N2CCC(C3CCCCC3)C2)no1` (configuration not stated), the AC40 was 4.72 µM. With `COc1ccc(-c2cn3c(C)c(C(=O)NC(C)(C)C)sc3n2)cc1` the AC40 was 1.02 µM. For `CCCCN1C(=S)NC[C@@H]1Cc1cccc2ccccc12`, the AC40 was 17.3 µM. Work on `FC(F)(F)c1ccccc1Cc1c(-c2cccc(Br)c2)nc2c3ccccc3ccn12` yielded an AC40 of 9.57 µM. For `CCc1sc(C(=O)N2CCN(CC(=O)Nc3cccc(F)c3)CC2)cc1C`, the AC40 was 3.04 µM. In the case of `CC(=O)c1ccc(NC(=O)CNCc2cccs2)cc1`, the AC40 is reported as 12.3 µM. With `Clc1cccc2sc(N3CCCCC3)nc12` the AC40 was 5.75 µM. With `O=C(Cc1ccccn1)c1ccc(Cl)cc1` the AC40 was 3.14 µM. With `CC(=O)Nc1ccc2nc(C)n(Cc3ccc(Cl)cc3)c(=O)c2c1` the AC40 was 4.21 µM. `O=C(Nc1ccc(-c2cnco2)cc1)c1ccc(F)cc1F` gave an AC40 of 4.28 µM. `Cc1ccc(S(=O)(=O)N(C)CC(=O)Nc2cc(C)ccn2)cc1` gave an AC40 of 9.84 µM. `O=C(Cc1c(O)c2ccccc2oc1=O)c1ccc(F)cc1` showed an AC40 of 2 µM. Work on `Fc1cccc(-c2ncc(-c3ccccc3)o2)c1` yielded an AC40 of 0.768 µM. In the case of `COc1ccc(CC(=O)Nc2ccc(-c3cn4ccc(C)cc4n3)cc2)cc1`, the AC40 is reported as 18.8 µM. `Cc1cccc(NC(=O)C2C3CCCCC32)c1` (configuration not stated) gave an AC40 of 4.55 µM. In the case of `C=CCNc1nc(Cl)nc(Nc2ccccc2)n1`, the AC40 is reported as 0.936 µM. With `O=C(NCCO)c1cccc(-c2cnc3c(Nc4cccc(OC(F)(F)C(F)F)c4)nccn23)c1` the AC40 was 4.46 µM. For `COc1ccc(-c2csc(C(O)c3ccccc3)n2)cn1` (configuration not stated), the AC40 was 9.65 µM. For `COc1ccccc1C(=O)NCCC(=O)NC1CCC(C)CC1` (configuration not stated), the AC40 was 4.6 µM. `CSc1ccccc1NC(=O)c1ccc(N2CCCC2=O)cc1` was tested, and the AC40 was 2.01 µM. Molecule `NC(=O)c1sc2nc(-c3cccs3)ccc2c1N` has an AC40 of 2.75 µM. `COc1ccc(Cl)cc1C(=O)NNC(=O)c1cccs1` showed an AC40 of 4.75 µM. `COc1ccc2cc(C(=O)N(C)CC(=O)Nc3ccccc3Br)ccc2c1` gave an AC40 of 5.86 µM. `COc1ccc(-c2csc(C(O)c3ccccc3)n2)cc1` (configuration not stated) was tested, and the AC40 was 5.06 µM. Work on `CCOc1ccc2nc(NC(=O)CSc3nnc(-c4ccncc4)n3CC3CCCO3)sc2c1` (configuration not stated) yielded an AC40 of 7.34 µM. `COc1ccc(-c2nc(C#N)c(NC(C)C)o2)cc1` was tested, and the AC40 was 2.38 µM. `CN=Cc1cc(-c2ccccc2)sc1O` gave an AC40 of 12.9 µM. Molecule `CC(C)(C)c1ccc(C(=O)c2cn[nH]c2-c2ccccc2O)cc1` has an AC40 of 7.24 µM. Work on `OC(c1ccc(F)cc1)c1ncc(-c2ccc3ccccc3c2)[nH]1` (configuration not stated) yielded an AC40 of 10.9 µM. `N/C(=N\OC(=O)c1cccnc1)c1ccccc1Cl` was tested, and the AC40 was 23.6 µM. `O=C1/C(=C/c2cccc3ccccc23)CCCc2ccccc21` showed an AC40 of 5.34 µM. `Cc1ccc(NC(=O)Nc2cccc(C)n2)c(C)c1` gave an AC40 of 6.01 µM. For `CSc1nnc(NC(=O)C23CC4CC(CC(C4)C2)C3)s1`, the AC40 was 6.47 µM. In the case of `O=C(Nc1ccc2c(c1)COC2=O)c1ccc(Cl)c(Cl)c1`, the AC40 is reported as 2.46 µM. For `O=C(Nc1ccc(F)c(Cl)c1)c1cc(C2CCCN(C(=O)C3CC3)C2)on1` (configuration not stated), the AC40 was less than 0.26 µM. In the case of `COc1cccc(OCc2cc(C(=O)N(C)Cc3nc4ccccc4[nH]3)no2)c1`, the AC40 is reported as 2.78 µM. With `Cc1ccc(NCSc2ccc(Cl)cc2)cc1` the AC40 was 1.66 µM. `O=C(CCN1C(=O)/C(=C/C=C/c2ccccc2)SC1=S)Nc1cccnc1` was tested, and the AC40 was 2.35 µM. `COc1ccc(-c2cc3cc(OC)c(OC)cc3cn2)cc1` was tested, and the AC40 was 6.22 µM. `CCn1c(=N)n(CC(=O)c2cccc(OC)c2)c2ccccc21` showed an AC40 of 8.58 µM. Work on `Cn1ccc2c(-c3ccc(C(=O)O)cc3)cc3c(c21)C1CCC3C1` (configuration not stated) yielded an AC40 of 4.09 µM. In the case of `Cc1[nH]c2ccccc2c(=O)c1CN(C)Cc1ccccc1`, the AC40 is reported as 10.4 µM. With `Cc1cc(C)c2nc(-c3ccccc3)ccc2c1` the AC40 was 1.5 µM. Molecule `NC(=O)c1ccc(OCc2ccccc2)nc1` has an AC40 of 5.4 µM.

From PubChem BioAssay AID651717 (Broad Institute, 2012)
